Results published in patent EP3553061A1, “NEW INHIBITORS OF BONE RESORPTION” (CENTRE NATIONAL DE LA RECHERCHE SCIENTIFIQUE (CNRS), priority 2018, dated 2019).
pIC50: −log10 of the molar value. Where “and” joins values, the source holds several entries; their conditions need not be identical. Identical values can stand only once. Like-named read-outs stand apart in the source and are kept apart here.

Tests used:
ovariectomized mice = experiment: Bone dynamics parameters in ovariectomized mice; assay type: in vivo, mouse; details: OVX mice
Experimental: The ovariectomized mouse was used as an in vivo model of pathological bone loss. […] Each group contained ten female C57BL/6J mice that were fourteen weeks of age at the beginning of in-life phase of the study. At the beginning of the in-life phase (at study day 0), mice were weighed and their surgical ovariectomy (OVX) and control (SHAM) operations were performed under analgesia and anaesthesia. […] was injected intra peritoneally (i.p.) to OVX animals, 20 mg/kg once (q.d., dose 1) or twice (b.i.d., dose 2) daily for 25 days, in a vehicle solution containing 0.485% carboxymethylcellulose (CMC) and 3% Tween 80. Control mice received the same volume of vehicle. The effects of treatment with reference compound zoledronate (100 μg/kg, subcutaneously, twice a week.) were studied by comparing OVX mice treated with zoledronate and vehicle with OVX control mice treated with vehicle. At study days 21 and 26, bone was labelled with subcutaneous injections of oxytetracycline and calcein green, respectively, in order to enable the analysis of optional dynamic parameters in bone histomorphometry. Blood for serum samples were harvested from saphenous vein at days -1, 13 and 27 of the study for bone dynamics marker dosage.

human Dock5 = target: T1, human Dock5 (Homo sapiens, UniProt Q9H7D0); experiment: Pull down assay of Rac activation by human Dock5 DHR2 in transfected 293T cells; assay type: cell-based; details: for inhibition at 50 µM / inhibition at 100 µM: HEK-293T; for pIC50: 1 hour treatment
T1 construct: plasmid expressing the catalytic DHR2 domain of mouse or human Dock5; expressed in transfected cells; host or cells: 293T cells
T1 sequence (Q9H7D0 1231-1642 limits assumed): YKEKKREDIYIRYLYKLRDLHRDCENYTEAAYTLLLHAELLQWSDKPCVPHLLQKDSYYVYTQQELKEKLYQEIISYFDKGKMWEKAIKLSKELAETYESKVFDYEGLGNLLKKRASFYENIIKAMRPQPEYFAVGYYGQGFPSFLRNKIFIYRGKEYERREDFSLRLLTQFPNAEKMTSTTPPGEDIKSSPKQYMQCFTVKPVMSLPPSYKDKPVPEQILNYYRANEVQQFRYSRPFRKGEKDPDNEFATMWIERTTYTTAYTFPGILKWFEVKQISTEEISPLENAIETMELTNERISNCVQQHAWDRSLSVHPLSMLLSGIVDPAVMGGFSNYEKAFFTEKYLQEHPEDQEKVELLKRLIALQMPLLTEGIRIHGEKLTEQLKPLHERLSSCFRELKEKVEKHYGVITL
Experimental: (§1) Compounds E73, E88 and E78 were tested for their inhibiting effect of the activation of Rac by mouse Dock5 of and for certain human Dock5 according to a screening test using a pull down assay as represented in Figure 1.
Methodology (Figure 1): cells 293T seeded onto 100 mm diameter plates in a DMEM culture medium containing 10% serum in an incubator in 5.5% CO2 humidified atmosphere at 37°C. When they reach the density of 5x10^6 cells per plate, cells are transfected with 8 µg of plasmid expressing the catalytic DHR2 domain of mouse or human Dock5 in order to activate endogenous GTPase Rac. After 24 hours, the cells are lifted using trypsin and are seeded 10^6 per well in 6-well plates of 35 mms in diameter. The following day, the cells are put in contact during one hour with the compound, in a mother solution at 20 mM into 100% DMSO, to a test concentration of 100 µM into 0.5% DMSO in the DMEM medium containing 0.1% of BSA. The basal activation of Rac by Dock5 is measured from the cells treated with 0.5% DMSO. After treatment, the cells are observed under the optical microscope to make sure of the absence of any toxic effect of the compound. If cell suffering is detected, the test is invalidated and the compound is retested at a lower dosage. The cells are then lysed in 100 µl of the pull down buffer (10% glycerol, 50 mm Tris pH 7.4, 100 mM NaCl, 1% IGEPAL® CA-630 (SIGMA I3021), 2 mM MgCl2 supplemented with proteases inhibitors) and the lysate is incubated during one hour with 20 µg of sepharose beads coupled with the fusion protein GST-PAK-CRIB, which binds specifically the activated form of GTPase Rac, which is bound to GTP. After centrifugation and washings, the proteins associated with the beads, including active Rac GTPase, are denatured and loaded on an SDS PAGE gel. […] For each compound tested, the level of active Rac GTPase is quantified using the Image J software and is normalized to the concentration of total protein in the whole cell lysate. The efficiency of the molecule is defined by the level of active Rac after treatment compared to the level of active Rac in the cells treated with DMSO (control). An activity is considered as inhibitory if the level of Rac activation decreases by at least 10%, 20%, in particular at least 30%, 40%, and preferably at least 50% compared to the control treated with DMSO (Table 1).
The same approach was used to test the potency of molecules of the 48ED family, on the activity of human Dock5 DHR2 (Table 2). Table 2: Inhibitory activity of the compounds of the 48ED family on human Dock5 activity.

[1] = target: T2, Dbl exchange domain of TRIO (Homo sapiens, UniProt O75962); experiment: In vitro Rac1 nucleotide exchange (mantGDP fluorescence) with purified recombinant proteins, TRIO; assay type: biochemical; details: inhibitor 20 and 60 µM
T2 construct: catalyzed by the DHR2 exchange domain of Dock5 or by the Dbl exchange domain of TRIO; made in house; host or cells: E. coli
Experimental: (§2) The effect of the molecules has been tested on the nucleotide exchange reaction by the GTPase Rac1 catalyzed by the DHR2 exchange domain of Dock5 or by the Dbl exchange domain of TRIO, using purified recombinant proteins produced in E. coli bacteria (Vives, Cres et al., 2015).
(§3) The activity of the inhibitors is measured by fluorescence spectroscopy on 96-well plates with a FlexStation 3 fluorimeter, in a reaction volume of 150 µL, without stirring, at a temperature of 26 ° C. Each plate contains 4 inhibitors at two concentrations (20 and 60 µM), 2 GEFs (DOCK5 and TRIO) and includes controls without inhibitor (1% final DMSO). The inhibitors are diluted to DMSO at an intermediate concentration of 2 or 6 mM, ie 1% final DMSO. Rac1-mantGDP (2 µM), DOCK5 or TRIO (0,2 µM) and the inhibitors are mixed immediately before the beginning of measurements. The exchange reaction is triggered by series of 8 wells in parallel by addition of 100 µM of GTP with mixing by pipetting (Flex mode). The kinetics is followed during 800 seconds. All the measurements are made in duplicate on the same plate. The total playing time of a plate is about 80 minutes. The kinetics of exchange are analyzed with a mono-exponential model F = F0 + ΔFe - kt with the KaleidaGraph ™ software, where F0 is the initial fluorescence and k (or kobs) is the exchange rate constant.

[2] = target: T3, DHR2 exchange domain of Dock5 (Homo sapiens, UniProt Q9H7D0); experiment: In vitro Rac1 nucleotide exchange (mantGDP fluorescence) with purified recombinant proteins, Dock5; assay type: biochemical; details: inhibitor 20 and 60 µM
T3 construct: catalyzed by the DHR2 exchange domain of Dock5 or by the Dbl exchange domain of TRIO; made in house; host or cells: E. coli
T3 sequence (Q9H7D0 1231-1642 limits assumed): as above
Experimental: as §2, §3

mouse Dock5 = target: T4, mouse Dock5 (Mus musculus, UniProt B2RY04); experiment: Pull down assay of Rac activation by mouse Dock5 DHR2 in transfected 293T cells; assay type: cell-based
T4 construct: plasmid expressing the catalytic DHR2 domain of mouse or human Dock5; expressed in transfected cells; host or cells: 293T cells
T4 sequence (B2RY04 1231-1642 limits assumed): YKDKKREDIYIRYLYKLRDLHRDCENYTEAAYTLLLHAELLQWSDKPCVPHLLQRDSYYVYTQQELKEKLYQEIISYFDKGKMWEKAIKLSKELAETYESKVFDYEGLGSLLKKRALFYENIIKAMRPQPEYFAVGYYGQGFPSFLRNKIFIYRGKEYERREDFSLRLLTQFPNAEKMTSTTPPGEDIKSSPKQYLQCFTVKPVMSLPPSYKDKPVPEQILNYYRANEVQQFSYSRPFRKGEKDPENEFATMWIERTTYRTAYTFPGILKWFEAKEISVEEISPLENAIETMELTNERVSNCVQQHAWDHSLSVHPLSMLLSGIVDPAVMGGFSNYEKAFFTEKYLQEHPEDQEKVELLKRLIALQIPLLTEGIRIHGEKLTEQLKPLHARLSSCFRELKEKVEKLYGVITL
Experimental: as §1
Methodology (Figure 1): cells 293T seeded onto 100 mm diameter plates in a DMEM culture medium containing 10% serum in an incubator in 5.5% CO2 humidified atmosphere at 37°C. When they reach the density of 5x10^6 cells per plate, cells are transfected with 8 µg of plasmid expressing the catalytic DHR2 domain of mouse or human Dock5 in order to activate endogenous GTPase Rac. After 24 hours, the cells are lifted using trypsin and are seeded 10^6 per well in 6-well plates of 35 mms in diameter. The following day, the cells are put in contact during one hour with the compound, in a mother solution at 20 mM into 100% DMSO, to a test concentration of 100 µM into 0.5% DMSO in the DMEM medium containing 0.1% of BSA. The basal activation of Rac by Dock5 is measured from the cells treated with 0.5% DMSO. […] If cell suffering is detected, the test is invalidated and the compound is retested at a lower dosage. […] For each compound tested, the level of active Rac GTPase is quantified using the Image J software and is normalized to the concentration of total protein in the whole cell lysate. […]

[3] = cited from earlier work
[4] = 20 mg/kg, i.p., b.i.d., first two weeks of in-life phase, vs OVX vehicle
[5] = 20 mg/kg, i.p., q.d. and b.i.d., study day 28, vs OVX vehicle
[6] = 20 mg/kg, i.p., q.d. and b.i.d, study day 28
[7] = Table 3, human Dock5, test concentration 100 µM, 1 hour, replicate values, 100 µM
[8] = zoledronate 100 µg/kg, subcutaneously, twice a week, study day 28, vs OVX vehicle
[9] = Table 3, human Dock5, test concentration 100 µM, 1 hour, replicate values, read-out: Inhibition

O=S1(=O)N(c2ccccc2)C[C@H](O)[C@]12CCN(Cc1ccc(Cl)cc1)C2 (racemic) [E197, rac-(4S,5R)-7-(4-chlorobenzyl)-4-hydroxy-2-phenyl-1-thia-2,7-diazaspiro[4.4]nonane 1,1-dioxide]
trabecular separation (Tb.Sp) (ovariectomized mice; 20 mg/kg, i.p., b.i.d., bone histomorphometry, study day 28, vs OVX vehicle): decreased
relative change in serum PINP levels (ovariectomized mice; 20 mg/kg, i.p., b.i.d., entire in-life phase, vs OVX vehicle): decreased
relative change in serum CTX-I levels (ovariectomized mice; [4]): decreased
relative change in serum PINP levels (ovariectomized mice; [4]): decreased
trabecular bone volume fraction (BV/TV) in femoral and tibial metaphyses (ovariectomized mice; 20 mg/kg, i.p., b.i.d., study day 28, vs OVX vehicle): increased
trabecular number (Tb.N) in tibial metaphysis (ovariectomized mice; 20 mg/kg, i.p., b.i.d., µCT, study day 28, vs OVX vehicle): increased
serum levels of bone turnover biomarker osteoclacin (ovariectomized mice; 20 mg/kg, i.p., q.d. and b.i.d., entire in-life phase): did not decreased
cortical bone specific surface (BS/BV) in tibial diaphysis (ovariectomized mice; [5]): decreased
cortical thickness (Ct.Th) in tibial diaphysis (ovariectomized mice; [5]): increased
mineral apposition rate (MAR) in trabecular bone in femoral metaphysis (ovariectomized mice; [6]): did not decreased
mineralizing surface per bone surface (MS/BS) in trabecular bone in femoral metaphysis (ovariectomized mice; [6]): did not decreased
body weight (ovariectomized mice; in-life phase (day 0 to day 28)): did not affect body weight
inhibition at 50 µM (human Dock5; Table 3, human Dock5, at 50µM): 80%
Inhibition (human Dock5; [7]): 55% and 90%
pIC50 (human Dock5; human Dock5): 4.44
effect on the nucleotide exchange reaction of Rac1 catalyzed by TRIO [1]: not TRIO
effect on the nucleotide exchange reaction of Rac1 catalyzed by Dock5 [2]: inhibit Dock 5

O=S1(=O)N(c2ccccc2)C[C@H](O)[C@]12CCN(Cc1cccc(Cl)c1)C2 [E73]
inhibition at 100 µM (human Dock5; Table 1a, test concentration 100 µM, 1 hour, replicate values, Negative = Rac activation does not decrease, read-out: Inhibition Dock5 (%) Human): 70%
Inhibition Dock5 (%) Human (human Dock5; Table 1a, test concentration 100 µM, 1 hour, replicate values, Negative = Rac activation does not decrease, 100 µM): 60% and 55%
Inhibition (human Dock5; Table 2, human Dock5 DHR2, test concentration 100 µM, 1 hour, replicate values, Negative = Rac activation does not decrease, 100 µM): 55% and 95% (3×) and 50% and 90% (2×)
pIC50 (human Dock5; human Dock5): 4.44
inhibition at 100 µM (mouse Dock5; HEK-293T, 100 µM, species of Dock5 not given): ~95%
pIC50 (mouse Dock5; mouse DHR2 of Dock5): 4.77

O=S1(=O)N(c2ccccc2)C[C@H](O)[C@]12CCN(Cc1ccc(Cl)c(Cl)c1)C2 (racemic) [E202, rac-(4S,5R)-7-(3,4-dichlorobenzyl)-4-hydroxy-2-phenyl-1-thia-2,7-diazaspiro[4.4]nonane 1,1-dioxide]
inhibition at 50 µM (human Dock5; Table 3, human Dock5, at 50µM): 95%
Inhibition (human Dock5; Table 3, human Dock5, at 50µM): 90%
pIC50 (human Dock5; human Dock5): 4.54
effect on the nucleotide exchange reaction of Rac1 catalyzed by TRIO [1]: not TRIO
effect on the nucleotide exchange reaction of Rac1 catalyzed by Dock5 [2]: inhibit Dock 5

O=S(=O)(Nc1cc(Cl)cc(Cl)c1)c1ccccc1 [C21, N-(3,5-dichlorophenyl)-benzenesulfonamide]
bone formation ([3]; mice treated daily along 4 weeks): Bone formation is maintained
histological observation of all tissues ([3]; mice): did not reveal any anomaly
development of bone metastases ([3]; mouse): reduces the development of bone metastases
bone resorption ([3]; mouse, postmenopausal osteoporosis, inflammatory and metastasis-induced bone loss models, intravenous or intraperitoneal administration): inhibits effectively the bone resorption

O=P(O)(O)C(O)(Cn1ccnc1)P(=O)(O)O [Zoledronate, reference compound]
relative change in serum osteoclacin levels (ovariectomized mice; zoledronate 100 µg/kg, subcutaneously, twice a week, in-life phase, vs OVX vehicle): decreased
mineral apposition rate (MAR) in trabecular bone in femoral metaphysis (ovariectomized mice; [8]): decreased
mineralizing surface per bone surface (MS/BS) in trabecular bone in femoral metaphysis (ovariectomized mice; [8]): decreased

O=S1(=O)N(C2CCCCC2)C[C@H](O)[C@]12CCN(Cc1ccccc1)C2 [E233]
inhibition at 100 µM (human Dock5; [9]): 70%
Inhibition (human Dock5; [7]): 60%

O=S1(=O)N(c2ccccc2)C[C@H](O)[C@]12CCN(C1CCCCCC1)C2 [E207]
inhibition at 100 µM (human Dock5; [9]): 20%

Cc1noc(C)c1CN1CC[C@@]2(C1)[C@@H](O)CN(c1ccccc1)S2(=O)=O [E199]
inhibition at 100 µM (human Dock5; [9]): 40%
Inhibition (human Dock5; Table 3, human Dock5, test concentration 100 µM, 1 hour, replicate values): 40% / 40%

CN1C[C@H](Oc2ccccn2)[C@]2(CCN(Cc3ccccc3)C2)S1(=O)=O [E126]
inhibition at 100 µM (human Dock5; Table 2, human Dock5 DHR2, test concentration 100 µM, 1 hour, replicate values, Negative = Rac activation does not decrease, read-out: Inhibition): 10%
